What was measured:
Carbonic anhydrase 4 = Carbonic anhydrase 4 (Homo sapiens, UniProt P22748); assay: Inhibition of recombinant human carbonic anhydrase 4 preincubated with enzyme for 15 mins by phenol red dye based stopped flow CO2 hydration assay
Carbonic anhydrase 9 = Carbonic anhydrase 9 (Homo sapiens, UniProt Q16790); assay: Inhibition of recombinant human carbonic anhydrase 9 preincubated with enzyme for 15 mins by phenol red dye based stopped flow CO2 hydration assay
Carbonic anhydrase 1 = Carbonic anhydrase 1 (Homo sapiens, UniProt P00915); assay: Inhibition of recombinant human carbonic anhydrase 1 preincubated with enzyme for 15 mins by phenol red dye based stopped flow CO2 hydration assay
Carbonic anhydrase 1, sequence (P00915 whole entry): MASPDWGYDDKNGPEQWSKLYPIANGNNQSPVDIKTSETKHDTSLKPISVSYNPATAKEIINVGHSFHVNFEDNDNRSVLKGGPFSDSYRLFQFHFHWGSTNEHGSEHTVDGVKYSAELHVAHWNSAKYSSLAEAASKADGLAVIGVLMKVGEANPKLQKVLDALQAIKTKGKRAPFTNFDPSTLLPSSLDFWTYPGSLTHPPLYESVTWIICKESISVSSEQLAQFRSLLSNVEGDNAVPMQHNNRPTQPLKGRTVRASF

Carbonic anhydrase 2 = Carbonic anhydrase 2 (Homo sapiens, UniProt P00918); assay: Inhibition of recombinant human carbonic anhydrase 2 preincubated with enzyme for 15 mins by phenol red dye based stopped flow CO2 hydration assay
Carbonic anhydrase 7 = Carbonic anhydrase 7 (Homo sapiens, UniProt P43166); assay: Inhibition of recombinant human carbonic anhydrase 7 preincubated with enzyme for 15 mins by phenol red dye based stopped flow CO2 hydration assay
Carbonic anhydrase 7, sequence (P43166 whole entry): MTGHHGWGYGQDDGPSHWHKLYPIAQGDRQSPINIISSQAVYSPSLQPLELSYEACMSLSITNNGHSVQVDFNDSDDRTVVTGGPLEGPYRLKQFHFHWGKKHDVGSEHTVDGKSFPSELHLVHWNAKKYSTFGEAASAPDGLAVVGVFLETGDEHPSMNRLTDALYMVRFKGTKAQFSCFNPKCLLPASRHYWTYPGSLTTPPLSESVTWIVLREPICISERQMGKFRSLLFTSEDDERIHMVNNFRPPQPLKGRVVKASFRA

Carbonic anhydrase 4, sequence (P22748 whole entry): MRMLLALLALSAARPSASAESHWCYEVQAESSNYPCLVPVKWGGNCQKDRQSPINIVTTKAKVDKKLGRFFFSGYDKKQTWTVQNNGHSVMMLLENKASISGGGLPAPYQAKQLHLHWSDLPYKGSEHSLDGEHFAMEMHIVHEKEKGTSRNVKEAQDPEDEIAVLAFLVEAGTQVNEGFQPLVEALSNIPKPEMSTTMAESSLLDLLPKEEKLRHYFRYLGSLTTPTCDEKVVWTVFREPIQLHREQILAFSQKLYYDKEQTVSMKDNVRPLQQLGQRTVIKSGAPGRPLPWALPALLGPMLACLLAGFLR

| Compound | Ki (Carbonic anhydrase 4) [µM] | Ki (Carbonic anhydrase 9) [µM] | Ki (Carbonic anhydrase 1) [µM] | Ki (Carbonic anhydrase 2) [µM] | Ki (Carbonic anhydrase 7) [µM] |
| --- | --- | --- | --- | --- | --- |
| O=C1c2cccc(F)c2C(=O)C1(O)O | > 100 | 44.3 | – | – | – |
| COc1ccc(CNC(=O)CCl)c2c1C(=O)C(O)(O)C2=O | > 100 | 8.41 | – | – | – |
| COc1ccc(OC)c2c1C(=O)C(O)(O)C2=O | > 100 | 68.2 | – | – | – |
| O=C1c2cccc(Br)c2C(=O)C1(O)O | > 100 | 61.2 | – | – | – |
| O=C1c2cccc([N+](=O)[O-])c2C(=O)C1(O)O | > 100 | 31 | – | – | – |
| O=C1c2cccc(O)c2C(=O)C1(O)O | > 100 | 17.1 | – | – | – |
| O=C1c2ccc(F)cc2C(=O)C1(O)O | > 100 | 38.7 | – | – | – |
| Cc1cccc2c1C(=O)C(O)(O)C2=O | > 100 | 51.4 | – | – | – |
| O=C1c2cc(Br)cc(Br)c2C(=O)C1(O)O | > 100 | 2.81 | – | – | – |
| COc1cc2c(cc1OC)C(=O)C(O)(O)C2=O | > 100 | 30.4 | – | – | – |
| CC(C)Oc1cccc2c1C(=O)C(O)(O)C2=O | > 100 | 1.34 | – | – | – |
| O=C1c2ccc([N+](=O)[O-])cc2C(=O)C1(O)O | > 100 | 29.6 | – | – | – |
| COc1cccc2c1C(=O)C(O)(O)C2=O | > 100 | 34.1 | – | – | – |
| O=C1c2ccccc2C(=O)C1(O)O | > 100 | 2.37 | 5.38 | 22.7 | 0.074 |
| O=C1c2ccc(Br)cc2C(=O)C1(O)O | 71.3 | 2.85 | – | – | – |
| COc1ccc2c(c1)C(=O)C(O)(O)C2=O | 74.3 | 13.4 | – | – | – |
| O=C1c2c(Br)c(Br)c(Br)c(Br)c2C(=O)C1(O)O | 39.7 | 46.7 | – | – | – |
| O=C1c2ccc(O)cc2C(=O)C1(O)O | > 100 | 27.8 | – | – | – |
| COc1ccc(C(C)C)c2c1C(=O)C(O)(O)C2=O | > 100 | 54.3 | – | – | – |
| Cc1ccc2c(c1)C(=O)C(O)(O)C2=O | 84.6 | 16.8 | – | – | – |

Source: ChEMBL document CHEMBL4732063, “Ninhydrins inhibit carbonic anhydrases directly binding to the metal ion” (Eur J Med Chem, 2021)
